Assay results from US20230158057A1, “COMPOSITIONS AND METHODS FOR THE TREATMENT OF PAIN” (Duke University, priority 2020, published 2023).

How the values were obtained:
[1] = test system: outer lamina II (IIo) spinal cord interneurons; assay: Whole-cell patch-clamp recording in mouse spinal cord slices; format: cell-based; conditions: slice incubation
Method: Whole-cell patch-clamp recording in mouse spinal cord slices: 4 to 6-week-old mice were anesthetized with urethane (1.5-2.0 g/kg, i.p.). […] After extraction of the spinal cord under anesthesia, animals were rapidly euthanized via decapitation. Transverse spinal slices (300 to 400 μm) were prepared using a vibrating microtome (VT1200S Leica). The slices were incubated at 32° C. for at least 30 min in ACSF equilibrated with 95% O2 and 5% CO2. The slices were placed in a recording chamber and completely submerged and perfused at a flow rate of 2 to 4 ml/min with ACSF saturated with 95% O2 and 5% CO2 at room temperature. Lamina II neurons in lumbar segments were identified as a translucent band under a microscope (BX51WIF; Olympus) with light transmitted from below. Whole-cell voltage-clamp recordings were made from outer lamina II neurons using patch pipettes. The patch pipette solution used to record sEPSCs contained 135 mM K-gluconate, 5 mM KCl, 0.5 mM CaCl2, 2 mM MgCl2, 5 mM EGTA, 5 mM HEPES, and 5 mM Mg-ATP (pH 7.3 adjusted with KOH). […] Signals were acquired using an […] amplifier. The data were stored and analyzed with a PC using pCLAMP 10.3 software.

[2] = test system: tumor-infiltrating lymphocytes (TILs); assay: Flow cytometry of tumor-infiltrating lymphocytes in bone marrow; format: in vivo, mouse; conditions: 24 h after second injection
Method: Flow cytometry. For analysis of immune subsets present within the bone marrow tumor microenvironment, bone marrow was collected as previously described followed by removal of RBC cells using RBC lysis buffer (Sigma, R7757). Cells were subsequently washed with PBS and resuspended in 2% paraformaldehyde in PBS for 10 minutes. Fixed cells were washed several times with PBS, followed by incubation in blocking buffer (1% anti-mouse-CD16/CD32, 2.4 G2, 2% FBS, 5% NRS, 1% triton ×100 and 2% NMS in HBSS; BD Bioscience) for 1 h at room temperature. Cells were subsequently stained with IL-17-FITC (1:20, rat, Miltenyi Biotec, 130-102-262), CD-3 APC/cy7 (1:200, rat, Biolegend, 100221), CD-4 APC (1:200, rat, Biolegend, 100411), FoxP3-PE (1:20, human, Miltenyl Biotec, 130-111-678), CD8a-FITC (1:200, rat, Biolegend, 100705), and CD11b-PE(1:200, rat, Biolegend, 101207) in blocking buffer for 1 h at room temperature. After staining, cells were washed in PBS with EDTA. Flow cytometry events were acquired by a BD FACS Canto II flow cytometer using the BD FACS Diva 8 software (BD Bioscience). Data were analyzed using Cytobank software (https://www.cytobank.org/cytobank).

[3] = test system: naïve mice or mice following spared nerve injury (SNI); assay: Repeated i.t. STING agonist administration, nerve injury (SNI) model; format: in vivo, mouse
Method: Mouse pain models: The chemotherapy-induced peripheral neuropathy (CIPN) model of chronic neuropathic pain was established as we have done previously, using 8-10-week-old CD-1 (strain #022, Charles River) mice injected with paclitaxel (2 mg/kg i.p.) every other day, with 4 injections total. The chronic constriction injury (CCI) model of neuropathic pain was also produced using 8-10-week-old CD-1 under isoflurane anesthesia. Briefly, the right sciatic nerve was exposed above the hip and two ligatures (7-0 Prolene) were placed around the nerve 1 mm apart located proximal to the trifurcation. Ligatures were loosely tied until a subtle flick of the ipsilateral hind limb was observed. CD-1 mice were also used to establish the SNI model, which was generated by tightly ligating the tibial and common peroneal nerves followed by transection and removal of a ˜3 mm portion of the nerve. The sural nerve was left intact and contact or stretching of this nerve was avoided . To establish the syngeneic bone cancer pain (BCP) model, 8-10-week-old C57BL/6J mice (strain #000664, Jackson Labs) were utilized, as the Lewis lung carcinoma cell line LLC1 (LL/2; ATCC CRL-1642) was originally generated in C57BL/6J mice. Mice were anesthetized with isoflurane and the left leg was shaved, disinfected with 10% povidone-iodine, and a 1 cm superficial incision was made to expose the patellar ligament. A 25-gauge needle was inserted at the intercondylar notch of the left femur into the femoral cavity, followed by needle replacement with a 10 μl Hamilton syringe microinjector containing a 2 μl suspension of LLC cells (2×10^5 cells) followed by a 2 μl gelatin sponge solution to enable closure of the injection site. All mice were housed and monitored in accordance with AAALAC standards and Duke IACUC guidelines that pertained to each model.
Reflexive-based sensory testing in mice: All behavioral testing in mice was performed in a specialized humidity- and light-controlled mouse behavior facility maintained at 21-24° C., with testing conducted between the hours of 8:00-16:00. Mice were habituated to the testing environment for at least 2 days prior to baseline testing. All tests were performed by an experimenter who was blinded to experimental conditions, including genotypes and drug treatment. For multi-day experiments using STING agonists, mice were tested in the same room at approximately the same time each day. To measure mechanical sensitivity, mice were confined to individual chambers with non-transparent borders on an elevated mesh rack, preventing mice from visualizing or interacting with one another during the testing period. […] We determined the 50% paw withdrawal threshold using the up-down method. […]

Compound | frequency and amplitude of spontaneous EPSCs (sEPSCs) [1] | proportion of CD4^+ T cells in bone marrow [2] | proportion of CD8^+ T cells in bone marrow [2] | proportion of T^reg cells in bone marrow [2] | tolerance on repeated administration ([3]; repeated i.t. 35 nmol, naïve mice or SNI mice) | SNI-induced astrogliosis ([3]; repeated i.t. administration, SNI) | cold allodynia at later timepoints ([3]; repeated i.t., starting at D12) | mechanical allodynia at later timepoints ([3]; repeated i.t., starting at D12)
Nc1ncnc2c1ncn2[C@@H]1O[C@@H]2COP(=O)([S-])O[C@@H]3[C@H](O)[C@@H](COP([O-])(=S)O[C@H]2[C@H]1O)O[C@H]3n1cnc2c(N)ncnc21.[Na+].[Na+] (stereo partly drawn) [ADU-S100, (2′-5′)-[P(R)]-5′-O-[(R)-hydroxymercaptophosphinyl]-P-thioadenylyl-adenosine cyclic dinucleotide] | decreased both the frequency and amplitude of spontaneous EPSCs | – | – | – | – | – | – | –
Cc1ccc2c(=O)c3cccc(CC(=O)O)c3oc2c1C [DMXAA, 2-(5,6-dimethyl-9-oxo-9H-xanthen-4-yl)acetic acid] | – | without significantly changing the proportion of (CD11b^− CD3^+) CD4^+ T cells | significantly increased the proportion of (CD11b^− CD3^+) CD8^+ T cells | decreased the proportion of T^reg cells | did not show signs of tolerance | attenuated SNI-induced astrogliosis | significantly reduced | significantly reduced
